Results from ChEMBL document CHEMBL3826961, “Lanostane triterpenoids from Ganoderma curtisii and their NO production inhibitory activities of LPS-induced microglia” (Bioorg Med Chem Lett, 2016).

Legend:
[1] = Antiinflammatory activity in mouse BV2 cells assessed as inhibition of LPS-induced NO production incubated for 24 hrs measured after 15 mins by Griess assay; format: functional, cell-based; details: BV-2
[2] = Cytotoxicity against LPS-induced mouse BV2 cells assessed as cell viability after 24 hrs by MTT assay; format: cell-based, BV-2; parameters: concentration or dose not given beside the values; details: read-out: Activity

SMILES	IC50 [1] [µM]	viability at 24 h [2] [%]
CC(CC(=O)C[C@@H](C)[C@H]1C[C@H](O)[C@@]2(C)C3=C(C(=O)C[C@]12C)[C@@]1(C)CCC(=O)C(C)(C)[C@@H]1C[C@@H]3O)C(=O)O (stereo partly specified)	13.6	97.9
CC(=O)O[C@@H]1C(=O)C2=C(C(=O)C[C@H]3C(C)(C)[C@@H](O)CC[C@]23C)[C@]2(C)C(=O)C[C@H](/C(C)=C\C(=O)CC(C)C(=O)O)[C@@]12C (stereo partly specified)	10.4	95.1
CC(CC(=O)C[C@@H](C)[C@H]1C[C@H](O)[C@@]2(C)C3=C(C(=O)C[C@]12C)[C@@]1(C)CC[C@H](O)C(C)(C)[C@@H]1C[C@@H]3O)C(=O)O (stereo partly specified)	13.6	90.7
CC(CC(=O)C[C@@H](C)[C@H]1CC(=O)[C@@]2(C)C3=C(C(=O)[C@@H](O)[C@]12C)[C@@]1(C)CCC(=O)C(C)(C)[C@@H]1C[C@@H]3O)C(=O)O (stereo partly specified)	5.91	92.3
CC(CC(=O)C[C@@H](C)[C@H]1C[C@H](O)[C@@]2(C)C3=C(C(=O)C[C@]12C)[C@@]1(C)CC[C@H](O)[C@@](C)(CO)[C@@H]1C[C@@H]3O)C(=O)O (stereo partly specified)	4.15	97.8
CC(=O)O[C@@H]1C(=O)C2=C(C(=O)C[C@H]3C(C)(C)C(=O)CC[C@]23C)[C@]2(C)C(=O)C[C@H](/C(C)=C\C(=O)CC(C)C(=O)O)[C@@]12C (stereo partly specified)	28	94.3
C/C(=C/C(=O)CC(C)C(=O)O)[C@H]1CC(=O)[C@@]2(C)C3=C(C(=O)C[C@]12C)[C@@]1(C)CCC(=O)C(C)(C)[C@@H]1C[C@@H]3O (stereo partly specified)	13.8	96.5
C/C(=C/C(=O)CC(C)C(=O)O)[C@H]1CC(=O)[C@@]2(C)C3=C(C(=O)[C@@H](O)[C@]12C)[C@@]1(C)CC[C@H](O)C(C)(C)[C@@H]1CC3=O (stereo partly specified)	25.9	94.5
C/C(=C/C(=O)CC(C)C(=O)O)[C@H]1C[C@H](O)[C@@]2(C)C3=C(C(=O)C[C@]12C)[C@@]1(C)CCC(=O)C(C)(C)[C@@H]1C[C@@H]3O (stereo partly specified)	8.73	92.5
C/C(=C/C(=O)CC(C)C(=O)O)[C@H]1CC(=O)[C@@]2(C)C3=C(C(=O)[C@@H](O)[C@]12C)[C@@]1(C)CC[C@H](O)C(C)(C)[C@@H]1C[C@@H]3O (stereo partly specified)	9.55	93.5
CC(CC(=O)C[C@@H](C)[C@H]1C[C@H](O)[C@@]2(C)C3=C(C(=O)C[C@]12C)[C@@]1(C)CC[C@H](O)C(C)(C)[C@@H]1CC3=O)C(=O)O (stereo partly specified)	6.5	89.3
CC(CC(=O)C[C@](C)(O)[C@H]1CC(=O)[C@@]2(C)C3=C(C(=O)[C@@H](O)[C@]12C)[C@@]1(C)CC[C@H](O)C(C)(C)[C@@H]1C[C@@H]3O)C(=O)O (stereo partly specified)	21.3	96.3
C/C(=C/C(=O)CC(C)C(=O)O)[C@H]1C[C@H](O)[C@@]2(C)C3=C(C(=O)C[C@]12C)[C@@]1(C)CCC(=O)C(C)(C)[C@@H]1CC3 (stereo partly specified)	26.8	89.3
CC(CC(=O)C[C@@H](C)[C@H]1CC(=O)[C@@]2(C)C3=C(C(=O)C[C@]12C)[C@@]1(C)CCC(=O)C(C)(C)[C@@H]1CC3=O)C(=O)O (stereo partly specified)	9.41	97.5
CC(CC(=O)C[C@@H](C)[C@H]1CC(=O)[C@@]2(C)C3=C(C(=O)C[C@]12C)[C@@]1(C)CC[C@H](O)C(C)(C)[C@@H]1C[C@@H]3O)C(=O)O (stereo partly specified) [GANODERIC ACID B]	20.2	94.7
CC(CC(=O)C[C@@H](C)[C@H]1CC(=O)[C@@]2(C)C3=C(C(=O)[C@@H](O)[C@]12C)[C@@]1(C)CC[C@H](O)C(C)(C)[C@@H]1CC3=O)C(=O)O (stereo partly specified) [GANODERIC ACID C6]	15.4	91.6
CC(CC(=O)C[C@@H](C)[C@H]1CC(=O)[C@@]2(C)C3=C(C(=O)C[C@]12C)[C@@]1(C)CCC(=O)C(C)(C)[C@@H]1C[C@@H]3O)C(=O)O (stereo partly specified) [GANODERIC ACID D]	10.9	93.3
CC(=O)O[C@@H]1C(=O)C2=C(C(=O)C[C@H]3C(C)(C)C(=O)CC[C@]23C)[C@]2(C)C(=O)C[C@H]([C@H](C)CC(=O)CC(C)C(=O)O)[C@@]12C (stereo partly specified) [GANODERIC ACID F]	24.1	90.6
CC(CC(=O)C[C@@H](C)[C@H]1CC(=O)[C@@]2(C)C3=C(C(=O)[C@@H](O)[C@]12C)[C@@]1(C)CC[C@H](O)C(C)(C)[C@@H]1C[C@@H]3O)C(=O)O (stereo partly specified) [GANODERIC ACID G]	5.77	95.2
CC(=O)O[C@@H]1C(=O)C2=C(C(=O)C[C@H]3C(C)(C)[C@@H](O)CC[C@]23C)[C@]2(C)C(=O)C[C@H]([C@H](C)CC(=O)CC(C)C(=O)O)[C@@]12C (stereo partly specified) [GANODERIC ACID H]	12.6	90.4
CC(CC(=O)C[C@@H](C)[C@H]1C[C@H](O)[C@@]2(C)C3=C(C(=O)C[C@]12C)[C@@]1(C)CCC(=O)C(C)(C)[C@@H]1CC3=O)C(=O)O (stereo partly specified) [GANODERIC ACID J]	22	93.7
CC(=O)O[C@@H]1C(=O)C2=C([C@@H](O)C[C@H]3C(C)(C)[C@@H](O)CC[C@]23C)[C@]2(C)C(=O)C[C@H]([C@H](C)CC(=O)CC(C)C(=O)O)[C@@]12C (stereo partly specified) [GANODERIC ACID K]	3.65	98.5
C[C@H](CC[C@H](O)[C@](C)(O)CO)[C@H]1CC[C@@]2(C)C3=CC[C@H]4C(C)(C)C(=O)CC[C@]4(C)C3=CC[C@]12C [GANODERMANONTRIOL]	23.6	85.5
C/C(=C\CC[C@@H](C)[C@H]1CC[C@@]2(C)C3=CC[C@H]4C(C)(C)[C@@H](O)CC[C@]4(C)C3=CC[C@]12C)CO [GANODEROL B]	13.7	91.3
CC(CC(=O)C[C@@H](C)[C@H]1C[C@H](O)[C@@]2(C)C3=C(C(=O)C[C@]12C)[C@@]1(C)CCC(=O)C(C)(C)[C@@H]1CC3)C(=O)O (stereo partly specified) [GANOLUCIDIC ACID A]	25.3	95.2
COC(=O)C(C)CC(=O)C[C@@H](C)[C@H]1C[C@H](O)[C@@]2(C)C3=C(C(=O)C[C@]12C)[C@@]1(C)CCC(=O)C(C)(C)[C@@H]1C[C@@H]3O (stereo partly specified) [METHYL GANODERATE A]	8.01	91.3
COC(=O)CC[C@@H](C)[C@H]1CC(=O)[C@@]2(C)C3=C(C(=O)[C@@H](O)[C@]12C)[C@@]1(C)CC[C@H](O)C(C)(C)[C@@H]1CC3=O [METHYL LUCIDENATE L]	22.5	83.5
O=c1c(O)c(-c2ccc(O)c(O)c2)oc2cc(O)cc(O)c12 [QUERCETIN]	15.1	92.5
